From PubChem BioAssay (NCI)
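Method: 48-hour compound exposure of cells in 96-well plates, five concentrations, linear interpolation of endpoints. GI50: concentration for 50% inhibition of growth. At the TGI there is no net growth.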

What was measured:
Test in all cases: growth of human tumour cells (NCI), 48 h
[1] = tested on: HCC-2998 colon
[2] = tested on: COLO 205 colon
[3] = tested on: OVCAR-8 ovarian
[4] = tested on: UACC-257 melanoma
[5] = tested on: ACHN renal
[6] = tested on: HOP-92 NSCLC
[7] = tested on: MALME-3M melanoma
[8] = tested on: SR leukemia
[9] = tested on: UO-31 renal
[10] = tested on: SF-295 CNS
[11] = tested on: BT-549 breast
[12] = tested on: HOP-62 NSCLC
[13] = tested on: MDA-MB-468 breast
[14] = tested on: MDA-MB-231 breast
[15] = tested on: 786-0 renal
[16] = tested on: SNB-19 CNS
[17] = tested on: HL-60(TB) leukemia
[18] = tested on: HT29 colon
[19] = tested on: SNB-75 CNS
[20] = tested on: OVCAR-4 ovarian
[21] = tested on: SK-MEL-2 melanoma
[22] = tested on: RXF 393 renal
[23] = tested on: SF-268 CNS
[24] = tested on: MOLT-4 leukemia
[25] = tested on: U251 CNS
[26] = tested on: HCT-116 colon
[27] = tested on: HCT-15 colon
[28] = tested on: NCI-H522 lung
[29] = tested on: M14 melanoma
[30] = tested on: IGROV1 ovarian
[31] = tested on: A498 renal
[32] = tested on: PC-3 prostate
[33] = tested on: CAKI-1 renal
[34] = tested on: OVCAR-3 ovarian
[35] = tested on: SF-539 CNS
[36] = tested on: NCI/ADR-RES ovarian
[37] = tested on: SK-OV-3 ovarian
[38] = tested on: HS 578T breast
[39] = tested on: UACC-62 melanoma
[40] = tested on: EKVX NSCLC
[41] = tested on: MDA-MB-435
[42] = tested on: MCF7 breast
[43] = tested on: SK-MEL-5 melanoma
[44] = tested on: TK-10 renal
[45] = tested on: DU-145 prostate
[46] = tested on: KM12 colon
[47] = tested on: SK-MEL-28 melanoma
[48] = tested on: NCI-H23 lung
[49] = tested on: LOX IMVI melanoma
[50] = tested on: K-562 leukemia
[51] = tested on: OVCAR-5 ovarian
[52] = tested on: NCI-H226 lung
[53] = tested on: RPMI-8226 leukemia
[54] = tested on: CCRF-CEM leukemia
[55] = tested on: NCI-H460 lung
[56] = tested on: SN12C renal
[57] = tested on: T-47D breast
[58] = tested on: SW-620 colon
[59] = tested on: A549 NSCLC

O=C(Cc1ccc2c(c1)CN(C1CCC(=O)NC1=O)C2=O)NCc1cccc2ccccc12 (stereo not given)
GI50 [1]: < 0.01 µM | TGI [1]: < 0.01 µM | GI50 [2]: < 0.01 µM | TGI [2]: < 0.01 µM | GI50 [3]: < 0.01 µM | GI50 [4]: 0.35 µM | TGI [4]: > 100 µM | GI50 [5]: 0.0526 µM | TGI [5]: 0.904 µM | GI50 [6]: < 0.01 µM | TGI [6]: < 0.01 µM | GI50 [7]: < 0.01 µM | TGI [7]: < 0.01 µM | GI50 [8]: 0.0929 µM | TGI [8]: > 100 µM | GI50 [9]: < 0.0115 µM | TGI [9]: 0.0877 µM | GI50 [10]: < 0.01 µM | TGI [10]: 0.129 µM | GI50 [11]: < 0.01 µM | TGI [11]: < 0.01 µM | GI50 [12]: < 0.01 µM | TGI [12]: < 0.0321 µM | GI50 [13]: < 0.01 µM | TGI [13]: < 0.01 µM | GI50 [14]: < 0.01 µM | TGI [14]: < 0.01 µM | GI50 [15]: < 0.01 µM | GI50 [16]: < 0.01 µM | TGI [16]: 0.0742 µM | GI50 [17]: < 0.01 µM | GI50 [18]: 0.0102 µM | TGI [18]: 0.108 µM | GI50 [19]: < 0.01 µM | TGI [19]: < 0.012 µM | GI50 [20]: < 0.01 µM | TGI [20]: 0.046 µM | GI50 [21]: < 0.01 µM | TGI [21]: 0.0192 µM | GI50 [22]: < 0.01 µM | TGI [22]: 0.0257 µM | GI50 [23]: < 0.01 µM | TGI [23]: 0.26 µM | GI50 [24]: < 0.01 µM | TGI [24]: > 100 µM | GI50 [25]: 0.0394 µM | TGI [25]: > 100 µM | GI50 [26]: 0.0546 µM | TGI [26]: > 100 µM | GI50 [27]: < 0.01 µM | TGI [27]: 0.114 µM | GI50 [28]: 0.0291 µM | TGI [28]: 0.351 µM | GI50 [29]: < 0.01 µM | TGI [29]: 0.0334 µM | GI50 [30]: < 0.01 µM | TGI [30]: < 0.0157 µM | GI50 [31]: < 0.01 µM | TGI [31]: 0.0728 µM | GI50 [32]: < 0.01 µM | TGI [32]: 0.177 µM | GI50 [33]: < 0.01 µM | TGI [33]: 6.38 µM | GI50 [34]: 0.0259 µM | TGI [34]: 1.17 µM | GI50 [35]: < 0.0103 µM | TGI [35]: 0.114 µM | GI50 [36]: 0.3 µM | TGI [36]: 3.08 µM | GI50 [37]: < 0.01 µM | TGI [37]: 0.147 µM | GI50 [38]: < 0.01 µM | TGI [38]: < 0.0179 µM | GI50 [39]: 0.0403 µM | TGI [39]: 1.42 µM | GI50 [40]: < 0.0224 µM | GI50 [41]: < 0.01 µM | TGI [41]: 0.163 µM | GI50 [42]: < 0.01 µM | TGI [42]: > 33.3 µM | GI50 [43]: < 0.01 µM | TGI [43]: < 0.0119 µM | GI50 [44]: < 0.0169 µM | TGI [44]: 0.751 µM | GI50 [45]: 0.0388 µM | GI50 [46]: < 0.01 µM | TGI [46]: 0.461 µM | GI50 [47]: < 0.0114 µM | TGI [47]: 0.189 µM | GI50 [48]: 0.0886 µM | TGI [48]: 3.99 µM | GI50 [49]: 0.0415 µM | TGI [49]: 2.51 µM | GI50 [50]: < 0.01 µM | TGI [50]: > 100 µM | GI50 [51]: < 0.01 µM | TGI [51]: 0.0409 µM | GI50 [52]: < 0.01 µM | TGI [52]: 0.041 µM | GI50 [53]: < 0.0113 µM | TGI [53]: > 100 µM | GI50 [54]: < 0.01 µM | TGI [54]: 0.105 µM | GI50 [55]: 5.17 µM | TGI [55]: > 100 µM | GI50 [56]: < 0.01 µM | TGI [56]: 0.0882 µM | GI50 [57]: < 0.01 µM | TGI [57]: < 0.01 µM | GI50 [58]: < 0.01 µM | GI50 [59]: 0.0146 µM | TGI [59]: > 100 µM

CCCCCCn1c(O)c(N=Nc2nc(-c3cc4ccccc4oc3=O)cs2)c2ccccc21
GI50 [1]: 16.2 µM | TGI [1]: 29.7 µM | GI50 [2]: 11 µM | TGI [2]: 24.9 µM | GI50 [3]: 17.1 µM | TGI [3]: 32.1 µM | GI50 [4]: 17.4 µM | TGI [4]: 31.7 µM | GI50 [5]: 16.7 µM | TGI [5]: 30.3 µM | GI50 [6]: 11 µM | TGI [6]: 23.9 µM | GI50 [7]: 16.9 µM | TGI [7]: 30.6 µM | GI50 [8]: 7.19 µM | TGI [8]: 34.8 µM | GI50 [9]: 14.1 µM | TGI [9]: 27.1 µM | GI50 [10]: 14.4 µM | TGI [10]: 27.5 µM | GI50 [11]: 15.7 µM | TGI [11]: 29.2 µM | GI50 [12]: 16.2 µM | TGI [12]: 30.3 µM | GI50 [13]: 15.7 µM | TGI [13]: 29.7 µM | GI50 [14]: 11.6 µM | TGI [14]: 23.8 µM | GI50 [15]: 17.5 µM | TGI [15]: 31.4 µM | GI50 [16]: 15.1 µM | TGI [16]: 28.4 µM | GI50 [17]: 18.8 µM | TGI [17]: 45.1 µM | GI50 [18]: 11.6 µM | TGI [18]: 24.4 µM | GI50 [19]: 12 µM | TGI [19]: 24.8 µM | GI50 [20]: 14.2 µM | TGI [20]: 27.5 µM | GI50 [21]: 18.3 µM | TGI [21]: 32.4 µM | GI50 [22]: 8.91 µM | TGI [22]: 21.1 µM | GI50 [23]: 17.3 µM | TGI [23]: 38.6 µM | GI50 [24]: 15.8 µM | TGI [24]: 42.6 µM | GI50 [25]: 15.8 µM | TGI [25]: 29.9 µM | GI50 [26]: 11.1 µM | TGI [26]: 23.4 µM | GI50 [27]: 15.2 µM | TGI [27]: 28.7 µM | GI50 [28]: 4.1 µM | TGI [28]: 14 µM | GI50 [29]: 15 µM | TGI [29]: 28.8 µM | GI50 [30]: 17.2 µM | TGI [30]: 30.9 µM | GI50 [31]: 19.7 µM | TGI [31]: 33.9 µM | GI50 [32]: 10.6 µM | TGI [32]: 23.5 µM | GI50 [33]: 17.7 µM | TGI [33]: 32.2 µM | GI50 [34]: 16.9 µM | TGI [34]: 30.8 µM | GI50 [35]: 16 µM | TGI [35]: 29.5 µM | GI50 [36]: 15.1 µM | TGI [36]: 28.9 µM | GI50 [37]: 15.2 µM | TGI [37]: 29.1 µM | GI50 [38]: 7.91 µM | TGI [38]: 52.3 µM | GI50 [39]: 13.7 µM | TGI [39]: 26.5 µM | GI50 [40]: 9.61 µM | TGI [40]: 21.4 µM | GI50 [41]: 17 µM | TGI [41]: 31.2 µM | GI50 [42]: 12.1 µM | TGI [42]: 25.9 µM | GI50 [43]: 9.02 µM | TGI [43]: 21.1 µM | GI50 [44]: 19.4 µM | TGI [44]: 33.6 µM | GI50 [45]: 16.3 µM | TGI [45]: 30.1 µM | GI50 [46]: 17.9 µM | TGI [46]: 33.8 µM | GI50 [47]: 13.9 µM | TGI [47]: 26.8 µM | GI50 [48]: 12.2 µM | TGI [48]: 24.6 µM | GI50 [49]: 15.5 µM | TGI [49]: 28.9 µM | GI50 [50]: 15.2 µM | TGI [50]: 43.8 µM | GI50 [51]: 17.1 µM | TGI [51]: 30.8 µM | GI50 [52]: 14.9 µM | TGI [52]: 28.1 µM | GI50 [53]: 17.2 µM | TGI [53]: 53.1 µM | GI50 [54]: 10.4 µM | TGI [54]: 44.8 µM | GI50 [55]: 15.1 µM | TGI [55]: 30.1 µM | GI50 [56]: 17.4 µM | TGI [56]: 31.2 µM | GI50 [57]: 12.7 µM | TGI [57]: 32.5 µM | GI50 [58]: 16.6 µM | TGI [58]: 31.3 µM | GI50 [59]: 13.6 µM | TGI [59]: 27.7 µM
